Molecules are shown by their SMILES.

Holding throughout (assay type): in vivo
The subject of assay [1] is H22 liver subcutaneous transplanted tumor. Briefly: Mouse model of H22 liver subcutaneous transplanted tumor. The note with it: 20 mg/kg injected intraperitoneally 14 days (positive drug). As for the experimental part: (§1) The method was as follows:
Experimental procedure: H22 hepatoma cell suspension was adjusted to 1×10^7/mL after dilution and counting with normal saline, and 0.2 mL per mouse was inoculated on the back of the mice. After 24 hours, the mice were weighed and administered drug at a dose of 0.1 mL/10 g once a day, wherein the mice in the solvent control group and the treatment groups were administered 0.9% sodium chloride solution and the compound of the present invention, respectively, for 14 days, and the mice in the CTX group were injected intraperitoneally for 14 days. The mice were weighed after 14 days. The animals were executed and the tumor blocks were removed and weighed separately. The tumor inhibition rate was calculated according to the following formula: tumor inhibition rate (%)=(1−average tumor weight in a treatment group/average tumor weight in the solvent control group)×100%.

In assay [2] the test system is mouse model of focal segmental glomerulosclerosis. Put plainly: Mouse model of focal segmental glomerulosclerosis (adriamycin). As for the experimental part:
as §1
Each mouse in the model group, the treatment groups and the positive control group was injected once into the tail vein with adriamycin at a dose of 8 mg/kg, and each mouse in the control group was injected once into the tail vein with saline at the same dose. The mice in the control group and model group were administered equal amount of saline by gavage for 6 weeks, and the mice in other group were administered corresponding compound in doses by gavage at a fixed time each day for 6 weeks after modelling with adriamycin. The body weights were recorded weekly and urine samples were collected.
Collection of urine samples: animals were placed in separate metabolic cages by group on days 0, 7, 14, 21, 28, 35, and 42 after modelling, with free access to water and no access to food, and urine samples were collected from each group of mice.
Determination of urine protein level using Coomassie brilliant blue (CBB) method: urine protein level was determined by urine protein quantitative test kit (Nanjing Jiancheng Bioengineering Institute). CBB working solution was prepared according to the kit instructions. 0.05 mL of each urine sample was mixed with 3 mL of CBB working solution, the mixture was allowed to stand for 5 min, and the absorbance value of each sample was determined at 595 nm. The urine protein levels samples of each group was calculated according to the protein standardization formula: urine protein level (mg/L)=(measured OD−blank OD)/(standard OD−blank OD)×563 mg/L.
Collection of serum samples: orbital blood from each mouse was collected in an EP tube, placed at 37° C. for 20 minutes, and centrifuged to obtain an upper layer of serum.
Collection of plasma samples: orbital blood from each mouse was collected in an anticoagulation tube, mixed well and stored at 4° C. for later use.
Determination of urea nitrogen level in plasma by diacetyl monoxime method: urea nitrogen level was determined by using blood urea nitrogen (BUN) test kit (Nanjing Jiancheng Bioengineering Institute). According to the kit instructions, 0.05 mL of anticoagulated plasma sample was mixed with 1 mL of oxime solution and 1 mL of acid working solution, and the mixtures were placed in a boiling water bath for 15 minutes. A UV-visible spectrophotometer was used to determine the absorbance values of each tube at a wavelength of 520 nm. Urea nitrogen levels in plasma samples of each group were calculated according to the formula: Urea nitrogen level (mmol/L)=(measured OD value−blank OD value)/(standard OD value−blank OD value)×10 mmol/L.
Collection of kidney tissue samples: kidneys were taken from mice after anesthesia, cut horizontally, and the upper part of the kidneys was embedded in OCT embedding box, sliced with frozen slicer and stored at −20° C.
H&E staining was used to assess pathological glomerular changes, and the procedure was as follows: frozen sections were fixed with 95% ethanol for 2 minutes, hydrated with distilled water, stained with hematoxylin for 3 minutes, washed with distilled water for 3 minutes, differentiated using 1% hydrochloric acid in ethanol for 10 seconds, washed with distilled water for 30 seconds, returned to blue in running water for 5 minutes, washed in distilled water for 30 seconds, stained with eosin for 30 seconds, washed with 75% and 85% ethanol for 20 seconds each, dehydrated rapidly with 95% ethanol for 1 minute, dehydrated with anhydrous ethanol, cleared to transparency in xylene (1 minute×3), and finally sealed with neutral balsam and photographed with a biomicroscope.

The test system of assay [3] is mouse model of renal fibrosis (UUO). Put plainly: Mouse model of renal fibrosis (unilateral ureteral obstruction, UUO). As for the experimental part:
The therapeutic effect of the compounds of the present invention (as exemplified by Compound 1-1 obtained in Example 1) on renal fibrosis was determined using a mouse model of renal fibrosis. The method was as follows:
Grouping of animals: male C57BL/6J mice aged 8 weeks were given adaptive feeding for 3 days and grouped into a sham operation group, a sham operation-treatment group, a Unilateral ureteral obstruction (UUO) model group, a low-dose (10 mg/kg) treatment group, a medium-dose (25 mg/kg) treatment group, a high-dose (50 mg/kg) treatment group, a medium-dose (25 mg/kg) treatment group of indole analogue 3-[(1-methyl-1H-indole-2-carbonyl)amino]propionic acid disclosed in CN2019107285315, and a positive control group of losartan (50 mg/kg), with 10 animals in each group. Mice in the model and the treatment groups were anesthetized by intraperitoneal injection of 0.5% sodium pentobarbital at a dose of 0.1 mL/10 g. The mice were fixed on the operating table and cut open in layers from the right side of the mid-abdomen to locate the left kidney, and the ends of the ureter were ligated, while the ureter was cut off between the two ligations; the sham operation group was operated as described above and the ligations were not performed. Post-operative organs were repositioned, sutured, and sterilized with iodophor after suturing was completed. Immediately after operation, the drug was administered by gavage once daily for 14 days. Urine sample collection: animals were placed in separate metabolic cages by group on days 0, 5, 10 and 14 after modelling, without food or water, and urine samples were collected from each group of mice.
The protein levels in urine were determined using Coomassie brilliant blue (CBB) method by using urine protein quantitative test kit (Nanjing Jiancheng Bioengineering Institute). CBB working solution was prepared according to the kit instructions. 0.05 mL of each urine sample was mixed with 3 mL of CBB working solution, the mixture was left to stand for 5 min, and the absorbance value of each sample was determined at 595 nm. The protein levels in each group of urine samples were calculated according to the protein standardization formula: urine protein levels (mg/L)=(measured OD−blank OD)/(standard OD−blank OD)×563 mg/L.
Collection of serum sample: orbital blood from each mouse was collected in an EP tube, placed at 37° C. for 20 minutes, and centrifuged to obtain the upper layer of serum.
Collection of plasma sample: orbital blood from each mouse was collected in an anticoagulation tube, mixed well and stored at 4° C. for later use.
Determination of creatinine levels in urine and serum by the picric acid colorimetric method: creatinine levels in urine and serum were determined by using the creatinine test kit (Nanjing Jiancheng Bioengineering Institute). According to the kit instructions, 1.5 mL of urine sample or serum sample and 0.5 mL of picric acid solution, 0.5 mL of 0.5 mol/L sodium hydroxide solution were mixed, heated in water bath at 37° C. for 10 minutes. The absorbance value of each sample was determined using a UV spectrophotometer at a wavelength of 510 nm. Creatinine levels in samples of each group were calculated according to the formula: creatinine level (μmol/L) in serum or urine=(measured OD value−blank OD value)/(standard OD value−blank OD value)×50 μmol/L×(dilution ratio 201).
Determination of urea nitrogen level in plasma by diacetyl monoxime method: urea nitrogen level was determined was determined by using blood urea nitrogen (BUN) test kit (Nanjing Jiancheng Bioengineering Institute). According to the kit instructions, 0.05 mL of anticoagulated plasma samples were mixed with 1 mL of oxime solution and 1 mL of acid working solution, and the mixtures were placed in a boiling water bath for 15 min. A UV-visible spectrophotometer was used to determine the absorbance values of each tube at a wavelength of 520 nm. […]

For assay [4], the system named is rat model of pulmonary hypertension induced by monocrotaline. Put plainly: Rat model of pulmonary hypertension induced by monocrotaline. As to the method:
The preventive effect of the compounds of the present invention (as exemplified by compound 1-1 obtained in Example 1) on pulmonary hypertension was determined using a rat model of pulmonary hypertension induced by monocrotaline. The method was as follows:
Grouping of animals: 70 male SD rats with weigh of 200±20 g were randomly divided into 7 groups, i.e., a normal control group, a monocrotaline (MCT) model group, a treatment group of low-dose compound 1-1 (10 mg/kg) (MCT), a treatment group of medium-dose compound 1-1 (25 mg/kg) (MCT), a treatment group of high-dose compound 1-1 (50 mg/kg) (MCT), a treatment group of medium-dose indole analogue 3-[(1-methyl-1H-indole-2-carbonyl)amino]propionic acid (25 mg/kg) disclosed in CN2019107285315 (MCT), and a sildenafil group (150 mg/kg) (MCT), with 10 rats in each group.
Experimental procedure: MCT was prepared as a 2% solution with a mixture of ethanol and saline (2:8) and the solution was injected intraperitoneally once at a dose of 60 mg/kg body weight in all groups except the normal control group. Each rat in the normal control group was injected intraperitoneally once with a solution prepared from ethanol and saline in a volume ratio of 2:8. Compound 1-1 obtained in Example 1, the indole analogue 3-[(1-methyl-1H-indole-2-carbonyl)amino]propionic acid disclosed in CN2019107285315, or the positive drug sildenafil was administered by gavage to the mice in the treatment groups on the day of modelling, and saline was administered by gavage to the mice in the normal control group and the MCT model group. The drugs were administered by gavage once a day for 28 days until 12 hours before test.
Determination of hemodynamic indexes: a polyethylene plastic microcatheter filled with heparin solution (0.9% sodium chloride solution+10 U/mL heparin) was inserted into the right external jugular vein of a rat, and the other end of the microcatheter was connected to a miniature pressure transducer to monitor the pressure changes. […] After 30 minutes of stabilization, the POWERLAB multi-channel intelligent physiological signal acquisition and recording system was applied to acquire, record and analyze the indexes.
Determination of the index of right ventricular (RV) hypertrophy: at the end of the experiment, the heart was removed by dissection of the thorax and the atrial tissue was cut off. The right ventricle (RV), left ventricle (LV), and interventricular septum (S) were isolated along the edge of the interventricular septum, and the RV, LV, and S were weighed after absorbing water with filter paper and the ratio RV/(LV+S) was used to reflect the degree of RV hypertrophy.
Pathological examination of pulmonary vessels: tissue blocks were taken from the same site in the lower lobe of the right lung and fixed in 10% neutral formaldehyde (pH=7.4) for 2 days. Routine paraffin embedding, serial sections, H&E staining and light microscopy were performed to observe morphological changes in small pulmonary arteries.
Effect on inflammatory factors in lung tissue: Lung tissues were collected from each group of rats, homogenates of lung tissue were prepared and centrifuged and supernatants were collected. The protein level in the supernatant was determined by Coomassie brilliant blue method, and tumor necrosis factor-α (TNF-α) in rats was determined by an ELISA kit (Beijing 4A Biotech Co., Ltd.). […]

[5] abbreviates: gavage once daily 14 days, not statistically different (P>0.05).
Setting [6] is: MCT + sildenafil (150 mg/kg) gavage 28 days.

The molecule `O=P1(N(CCCl)CCCl)NCCCO1` (stereo not drawn) [CTX, cyclophosphamide, reference compound] yielded a tumor inhibition rate in assay [1] of 60.3%.

Take `CCCCC1=NC2(CCCC2)C(=O)N1Cc1ccc(-c2ccccc2-c2nnn[nH]2)cc1` [irbesartan, reference compound]: in assay [2] (50 mg/kg gavage, 6 weeks), the “serum urea nitrogen level reduced compared with the model group” value is recorded as 9.0%. Also, the “serum urea nitrogen level” value in assay [2] (50 mg/kg gavage, 6 weeks, model 16.08±0.23) is 14.63 ± 0.19 mmol/L. Moreover, in assay [2] (50 mg/kg gavage, 6 weeks, model 547.0±106.3), the urine protein level is 382 ± 80.8 mg/L. For the same molecule, in assay [2] (FIG. 1, control compound 25 mg/kg, irbesartan 50 mg/kg), the “glomerular lesions, renal tissue pathology (H&E, PAS, Sirius red stain)” value is “shows the same effect”. For the same molecule, the “body weight compared with the FSGS group” value in assay [2] (gavage daily 6 weeks, compound 1-1 10, 25, 50 mg/kg, control compound 25 mg/kg, irbesartan 50 mg/kg) was “increased body weights”.

Turning to `CCCCc1nc(Cl)c(CO)n1Cc1ccc(-c2ccccc2-c2nn[nH]n2)cc1` [losartan, reference compound], in assay [3] (50 mg/kg gavage 14 days), the “creatinine level reduced compared with the model group” value was 19.0%, the “urea nitrogen level reduced compared with the model group” value worked out at 29.7% and the “urine protein level reduced compared with the model group” value is 46.6%. The molecule also registered a urea nitrogen level in assay [3] (50 mg/kg gavage 14 days, model 17.56±0.48) of 12.35 ± 0.37 mmol/L. The serum creatinine level in assay [3] (50 mg/kg gavage 14 days, model 32.48±0.87) turned out to be 26.32 ± 1.12 µmol/L. In addition, the urine protein level in assay [3] (50 mg/kg gavage 14 days, model 888.5±264.8) was found to be 475 ± 112 mg/L. In addition, the “extent of renal fibrosis, pathological staining (H&E, Masson, Sirius red)” value in assay [3] (FIG. 2, control compound 25 mg/kg, losartan 50 mg/kg) was “shows the same effect”. Besides, in assay [3] (setting [5]), the “body weight compared with the UUO model group” value is “slight increase in body weight” and the “kidney weight compared with the UUO model group” value is recorded as “slight decrease in kidney weight”.

In the case of `CCCc1nn(C)c2c(=O)[nH]c(-c3cc(S(=O)(=O)N4CCN(C)CC4)ccc3OCC)nc12` [sildenafil, reference compound], in assay [4] (setting [6]), the “RV/(LV + S)” value amounted to 0.32 ± 0.02 and the “TNF-α in lung tissue” value is 0.600 ± 06 g/g protein. Further, the mPAP in assay [4] (MCT + sildenafil (150 mg/kg) gavage once a day 28 days) is 23.6 ± 3.4 mmHg.
